Source: patent publication US12157730B2, “Heteroaryl derivative, method for producing same, and pharmaceutical composition comprising same as effective component” (VORONOI INC., priority 2019, dated 2024)

Biological target: T1, Ba/F3 cell EGFR Exon20 ins NPH (Homo sapiens, UniProt P00533, INS773NPH)
T1 construct: expressed in transfected cells; host or cells: Ba/F3
Assay: Ba/F3 cell proliferation suppression, EGFR Exon20 ins NPH
Assay type: cell-based
Settings: GI50 class; Ba/F3 cell line with NPH inserted at Exon20 of EGFR; 72 hours
Protocol: The following experiment was carried out to evaluate the suppression activity of the compounds according to the present invention against proliferation of Ba/F3 and lung cancer cells which express EGFR mutations.
Of the cancer cell lines expressing the EGFR gene, A549 was cultured after adding 10% FBS (HyClone) to DMEM (Invitrogen), and RPMI-1640 (Invitrogen) with 10% FBS was used for the other cancer cells. For the Ba/F3 cells, RPMI-1640 with 10% FBS and 5 ng/ml IL-3 (R&D Systems) was used. The transduced Ba/F3 cells were cultured by adding 1 ug/ml puromycin (Invitrogen) to the same medium.
24 hours before treatment with the compounds, 3000 to 5000 cells were distributed into each well of a white clear bottom 96 well plate (Corning). The compounds were diluted in dimethylsulfoxide (dilution ratio 3:1; 12 concentrations total) and injected 0.5 ul each for a final concentration of 0.3 nM to 50 um. As for measurement of live cells, 72 hours after treatment with the compounds, a CellTiter-Glo luminescent cell-viability reagent (Promega) was used to store the cells at room temperature for 10 minutes, followed by measurement of luminescence using a reader (SynergyNeo, Biotek). Each test was repeated three times.
The result was calculated as a cell growth ratio (%) compared to a control. The program GraphPad Prism version 5.0 was used to draw the graphs and calculate the GI50 values.

| Molecule | Ba/F3 (NPH) Activity |
| --- | --- |
| C=CC(=O)Nc1cc(Nc2cc(N3OCC[C@@H]3c3ccc(Cl)c(F)c3)ncn2)c(OC)cc1N1CCC(N2C[C@@H]3C[C@H]2CO3)CC1 [compound 802, N-(2-(4-((1S,4S)-2-oxa-5-azabicyclo [2.2.1]heptane-5-yl)piperidine-1-yl)-5-((6-((R)-3-(4-chloro-3-fluorophenyl)isoxazolidine-2-yl)pyrimidine-4-yl)amino)-4-methoxyphenyl) acrylamide] | A (GI50 < 50 nM) |
| C=CC(=O)Nc1cc(Nc2cc(N3OCC[C@@H]3c3cccc(C)c3F)ncn2)c(OC)cc1N(C)CCN(C)C [compound 846, N-(2-((2-(dimethylamino)ethyl) (methyl)amino)-5-((6-((R)-3-(2-fluoro-3-methylphenyl)isoxazolidine-2-yl)pyrimidine-4-yl)amino)-4-methoxyphenyl) acrylamide] | A (GI50 < 50 nM) |
| C=CC(=O)Nc1cc(Nc2cc(N3OCC[C@@H]3c3ccc(C)nc3)ncn2)c(OC)cc1N(C)CCOC [Example 223, N-(4-methoxy-2-((2-methoxyethyl) (methyl)amino)-5-((6-((R)-3-(6-methylpyridine-3-yl)isoxazolidine-2-yl)pyrimidine-4-yl)amino)phenyl)acrylamide] | B (50 nM ≤ GI50 < 500 nM) |
| C=CC(=O)Nc1cc(Nc2cc(N3OCC[C@@H]3c3cccc(C#N)c3)ncn2)c(OC)cc1N1CCC(O)CC1 [compound 390, N-(5-((6-((R)-3-(3-cyanophenyl)isoxazolidine-2-yl)pyrimidine-4-yl)amino)-2-(4-hydroxypiperidine-1-yl)-4-methoxyphenyl) acrylamide] | B (50 nM ≤ GI50 < 500 nM) |
| C=CC(=O)Nc1cc(Nc2cc(N3OCC[C@@H]3c3ccc(F)cc3F)ncn2)c(OC)cc1N1CCN(C2CCCC2)CC1 [compound 348, N-(2-(4-cyclopentylpiperazine-1-yl)-5-((6-((R)-3-(2,4-difluorophenyl)isoxazolidine-2-yl)pyrimidine-4-yl)amino)-4-methoxyphenyl) acrylamide] | A (GI50 < 50 nM) |
| C=CC(=O)Nc1cc(Nc2cc(N3OCC[C@@H]3c3cc(F)ccc3F)ncn2)c(OC)cc1N1CCC(N2CCCN(C3CC3)CC2)CC1 [compound 829, N-(2-(4-(4-cyclopropyl-1,4-diazepane-1-yl)piperidine-1-yl)-5-((6-((R)-3-(2,5-difluorophenyl)isoxazolidine-2-yl)pyrimidine-4-yl)amino)-4-methoxyphenyl) acrylamide] | A (GI50 < 50 nM) |
| C=CC(=O)Nc1cc(Nc2cc(N3OCC[C@@H]3Cc3ccccc3)ncn2)c(OC)cc1N1CC2CC1CN2C (stereo partly drawn) [compound 969, N-(5-((6-((S)-3-benzylisoxazolidine-2-yl)pyrimidine-4-yl)amino)-4-methoxy-2-(5-methyl-2,5-diazabicyclo[2.2.1]heptane-2-yl)phenyl) acrylamide] | A (GI50 < 50 nM) |
| C=CC(=O)Nc1cc(Nc2cc(N3OCC[C@@H]3c3cc(F)cc(Cl)c3F)ncn2)c(OC)cc1N1CCN(C2CC2)CC1 [compound 939, N-(5-((6-((R)-3-(3-chloro-2,5-difluorophenyl)isoxazolidine-2-yl)pyrimidine-4-yl)amino)-2-(4-cyclopropylpiperazine-1-yl)-4-methoxyphenyl) acrylamide] | B (50 nM ≤ GI50 < 500 nM) |
| C=CC(=O)Nc1cc(Nc2cc(N3OCC[C@@H]3c3ccc(F)c(F)c3)ncn2)c(OC)cc1N1CCC(N2CCN(CC)CC2)CC1 [compound 545, N-(5-((6-((R)-3-(3,4-difluorophenyl)isoxazolidine-2-yl)pyrimidine-4-yl)amino)-2-(4-(4-ethylpiperazine-1-yl)piperidine-1-yl)-4-methoxyphenyl) acrylamide] | A (GI50 < 50 nM) |
| C=CC(=O)Nc1cc(Nc2cc(N3OCC[C@@H]3c3cccc(F)c3F)ncn2)c(OC)cc1N1CCC(N2CCN(C)[C@H](C)C2)CC1 [compound 336, N-(5-((6-((R)-3-(2,3-difluorophenyl)isoxazolidine-2-yl)pyrimidine-4-yl)amino)-2-(4-((R)-3,4-dimethylpiperazine-1-yl)piperidine-1-yl)-4-methoxyphenyl) acrylamide] | A (GI50 < 50 nM) |
| C=CC(=O)Nc1cc(Nc2cc(N3OCC[C@@H]3c3cccc(Cl)c3F)ncn2)c(OC)cc1N1CCC(N2CCN(C3COC3)CC2)CC1 [Example 86, N-(5-((6-((R)-3-(3-chloro-2-fluorophenyl)isoxazolidine-2-yl)pyrimidine-4-yl)amino)-4-methoxy-2-(4-(4-(oxetane-3-yl)piperazine-1-yl)piperidine-1-yl)phenyl)acrylamide] | A (GI50 < 50 nM) |
| C=CC(=O)Nc1cc(Nc2cc(N3OCC[C@@H]3c3ccc(F)cc3F)ncn2)c(OC)cc1N1CCOCC1 [compound 325, N-(5-((6-((R)-3-(2,4-difluorophenyl)isoxazolidine-2-yl)pyrimidine-4-yl)amino)-4-methoxy-2-morpholinophenyl) acrylamide] | A (GI50 < 50 nM) |
| C=CC(=O)Nc1cc(Nc2cc(N3OCC[C@@H]3c3cccc(F)c3F)ncn2)c(OC)cc1N1CCC(N2CC[C@H](N(C)C)C2)CC1 [compound 340, N-(5-((6-((R)-3-(2,3-difluorophenyl)isoxazolidine-2-yl)pyrimidine-4-yl)amino)-2-(4-((S)-3-(dimethylamino)pyrolidine-1-yl)piperidine-1-yl)-4-methoxyphenyl) acrylamide] | A (GI50 < 50 nM) |
| C=CC(=O)Nc1cc(Nc2cc(N3OCC[C@@H]3c3cc(F)cc(Cl)c3)ncn2)c(OC)cc1N1CCC(N2CCOCC2)CC1 [compound 589, N-(5-((6-((R)-3-(3-chloro-5-fluorophenyl)isoxazolidine-2-yl)pyrimidine-4-yl)amino)-4-methoxy-2-(4-morpholinopiperidine-1-yl)phenyl)acrylamide] | A (GI50 < 50 nM) |
| C=CC(=O)Nc1cc(Nc2cc(N3OCC[C@@H]3c3ccc(Cl)c(Cl)c3)ncn2)c(OC)cc1N1CCC(N2C[C@H]3C[C@@H]2CO3)CC1 [compound 690] | A (GI50 < 50 nM) |
| C=CC(=O)Nc1cc(Nc2cc(N3OCC[C@@H]3c3cc(F)ccc3F)ncn2)c(OC)cc1N1CCC(N2CCN(C)CC2)CC1 [compound 765, N-(5-((6-((R)-3-(2,5-difluorophenyl)isoxazolidine-2-yl)pyrimidine-4-yl)amino)-4-methoxy-2-(4-(4-methylpiperazine-1-yl)piperidine-1-yl)phenyl)acrylamide] | A (GI50 < 50 nM) |
| C=CC(=O)Nc1cc(Nc2cc(N3OCC[C@@H]3c3cccc(C#N)c3)ncn2)c(OC)cc1N1CCC(N2CCN(CC)CC2)CC1 [compound 399, N-(5-((6-((R)-3-(3-cyanophenyl)isoxazolidine-2-yl)pyrimidine-4-yl)amino)-2-(4-(4-ethylpiperazine-1-yl)piperidine-1-yl)-4-methoxyphenyl) acrylamide] | B (50 nM ≤ GI50 < 500 nM) |
| C=CC(=O)Nc1cc(Nc2cc(N3OCC[C@@H]3c3ccc(F)c(Cl)c3)ncn2)c(OC)cc1N1CCC(N2CCN(C(C)C)CC2)CC1 [compound 715, N-(5-((6-((R)-3-(3-chloro-4-fluorophenyl)isoxazolidine-2-yl)pyrimidine-4-yl)amino)-2-(4-(4-isopropylpiperazine-1-yl)piperidine-1-yl)-4-methoxyphenyl) acrylamide] | A (GI50 < 50 nM) |
| N-(5-((6-((R)-3-(3,4- difluorophenyl) isoxazolidine-2-yl) pyrimidine-4-yl)amino)- 2-(4-((S)-3- (dimethylamino) pyrolidine-1-yl) piperidine-1-yl)-4- methoxyphenyl) acrylamide [compound 500] | A (GI50 < 50 nM) |
| C=CC(=O)Nc1cc(Nc2cc(N3OCC[C@@H]3c3ccc(F)cc3)ncn2)c(OC)cc1N1CCC(N2CCOCC2)CC1 [compound 786, N-(5-((6-((R)-3-(4-fluorophenyl)isoxazolidine-2-yl)pyrimidine-4-yl)amino)-4-methoxy-2-(4-morpholinopiperidine-1-yl)phenyl)acrylamide] | A (GI50 < 50 nM) |
| C=CC(=O)Nc1cc(Nc2cc(N3OCC[C@@H]3c3ccc(C)nc3)ncn2)c(OC)cc1N1CCN(C2CC2)CC1 [Example 46, N-(2-(4-cyclopropylpiperazine-1-yl)-4-methoxy-5-((6-((R)-3-(6-methylpyridine-3-yl)isoxazolidine-2-yl)pyrimidine-4-yl)amino)phenyl) acrylamide] | C (500 nM ≤ GI50 < 5000 nM) |
| C=CC(=O)Nc1cc(Nc2cc(N3OCC[C@@H]3c3cccc(F)c3F)ncn2)c(OC)cc1N1CCN(C)CC1 [compound 925, N-(5-((6-((R)-3-(2,3-difluorophenyl)isoxazolidine-2-yl)pyrimidine-4-yl)amino)-4-methoxy-2-(4-methylpiperazine-1-yl)phenyl)acrylamide] | A (GI50 < 50 nM) |
| C=CC(=O)Nc1cc(Nc2cc(N3OCC[C@@H]3Cc3cccc(F)c3Cl)ncn2)c(OC)cc1N1CCC(N2CCN(C3CC3)CC2)CC1 [compound 1007, N-(5-((6-((S)-3-(2-chloro-3-fluorobenzyl)isoxazolidine-2-yl)pyrimidine-4-yl)amino)-2-(4-(4-cyclopropylpiperazine-1-yl)piperidine-1-yl)-4-methoxyphenyl) acrylamide] | A (GI50 < 50 nM) |
